These compounds were tested on batrachotoxin (BTX) binding site of the sodium channel (assay: Affinity to the batrachotoxin (BTX) binding site of the sodium channel). Details: [3H]-batrachotoxinin A20 α-benzoate 10 nM; synaptosomes from rat cerebral cortex; test concentration not given.
Set-up: species or system rat

Q: `CN(C(=O)c1cccc2ccccc12)c1nc2n(c1C(=O)NCCc1ccc(Oc3ccccc3)cc1)CCCC2` [Example 68, 2-[methyl-(naphthalene-1-carbonyl)-amino]-5,6,7,8-tetrahydro-imidazo[1,2-a]pyridine-3-carboxylic acid [2-(4-phenoxy-phenyl)-ethyl]-amide] was tested. Which “BTX inhibition (rat) (% inhibition)” value did it give?
A: The value was 87%.

Q: Which “BTX inhibition (rat) (% inhibition)” value does the source give for `CCCCN(C(=O)c1cccc(Cl)c1)c1nc2n(c1C(=O)NCCc1c[nH]c3c(C)cccc13)CCCC2` [Example 69, 2-[butyl-(3-chloro-benzoyl)-amino]-5,6,7,8-tetrahydro-imidazo[1,2-a]pyridine-3-carboxylic acid [2-(7-methyl-1H-indol-3-yl)-ethyl]-amide] here?
A: The value was 48%.

Q: How did the “BTX inhibition (rat) (% inhibition)” value turn out when `CN(C(=O)c1cccc(Cl)c1)c1nc2n(c1C(=O)NCCc1cccc(C(F)(F)F)c1)CCCC2` [Example 71, 2-[(3-chloro-benzoyl)-methyl-amino]-5,6,7,8-tetrahydro-imidazo[1,2-a]pyridine-3-carboxylic acid [2-(3-trifluoromethyl-phenyl)-ethyl]-amide] was run?
A: The value was 36%.

Q: With `CCCCN(C(=O)c1cccc(Cl)c1)c1nc2n(c1C(=O)N1CCN(c3ccccn3)CC1)CCCC2` [Example 72, N-butyl-3-chloro-N-[3-(4-pyridin-2-yl-piperazine-1-carbonyl)-5,6,7,8-tetrahydro-imidazo[1,2-a]pyridin-2-yl]-benzamide] as the compound, how does the “BTX inhibition (rat) (% inhibition)” value read?
A: Its value is 39%.

Q: With `CN(C(=O)c1cccc2ccccc12)c1nc2n(c1C(=O)N(C)C1CCN(Cc3ccc(-c4ccccc4)cc3)C1)CCCC2` (centres unmarked) [Example 76, 2-[methyl-(naphthalene-1-carbonyl)-amino]-5,6,7,8-tetrahydro-imidazo[1,2-a]pyridine-3-carboxylic acid (1-biphenyl-4-ylmethyl-pyrrolidin-3-yl)-methyl-amide] as the compound, how does the “BTX inhibition (rat) (% inhibition)” value read?
A: The value was 95%.

Q: `CCCCN(C(=O)c1cccc(Cl)c1)c1nc2n(c1C(=O)NCC1COc3ccccc3O1)CCCC2` (centres unmarked) [Example 77, 2-[butyl-(3-chloro-benzoyl)-amino]-5,6,7,8-tetrahydro-imidazo[1,2-a]pyridine-3-carboxylic acid (2,3-dihydro-benzo[1,4]dioxin-2-ylmethyl)-amide] was tested. Which “BTX inhibition (rat) (% inhibition)” value did it give?
A: Its value is 56%.

Q: How did the “BTX inhibition (rat) (% inhibition)” value turn out when `CCCCN(C(=O)c1cccc(Cl)c1)c1nc2n(c1C(=O)N1CCN(c3cccc(C(F)(F)F)c3)CC1)CCCC2` [Example 79, N-butyl-3-chloro-N-{3-[4-(3-trifluoromethyl-phenyl)-piperazine-1-carbonyl]-5,6,7,8-tetrahydro-imidazo[1,2-a]pyridin-2-yl}-benzamide] was run?
A: The value was 83%.

Q: `CN(C(=O)c1cccc(Cl)c1)c1nc2n(c1C(=O)N1CCC(O)(c3cccc(C(F)(F)F)c3)CC1)CCCC2` [Example 81, 3-chloro-N-{3-[4-hydroxy-4-(3-trifluoromethyl-phenyl)-piperidine-1-carbonyl]-5,6,7,8-tetrahydro-imidazo[1,2-a]pyridin-2-yl}-N-methyl-benzamide] was tested. Which “BTX inhibition (rat) (% inhibition)” value did it give?
A: Its value is 33%.

Q: Which “BTX inhibition (rat) (% inhibition)” value does the source give for `CN(C(=O)c1cccc(Cl)c1)c1nc2n(c1C(=O)NC1CCN(Cc3c(Cl)cccc3Cl)C1)CCCC2` (centres unmarked) [Example 83, 2-[(3-chloro-benzoyl)-methyl-amino]-5,6,7,8-tetrahydro-imidazo[1,2-a]pyridine-3-carboxylic acid [1-(2,6-dichlor-benzyl)-pyrrolidin-3-yl]-amide] here?
A: The value was 80%.

Q: With `COc1cc(Br)c(CN2CCC(NC(=O)c3c(N(C)C(=O)c4cccc(Cl)c4)nc4n3CCCC4)C2)cc1OC` (centres unmarked) [Example 84, 2-[(3-chloro-benzoyl)-methyl-amino]-5,6,7,8-tetrahydro-imidazo[1,2-a]pyridin-3-carboxylic acid [1-(2-bromo-4,5-dimethoxy-benzyl)-pyrrolidin-3-yl]-amide] as the compound, how does the “BTX inhibition (rat) (% inhibition)” value read?
A: The value was 87%.

Q: For `CN(C(=O)c1ccccc1)c1nc2n(c1C(=O)Nc1ccc3c(c1)OCO3)CCCC2` [Example 85, 2-(benzoyl-methyl-amino)-5,6,7,8-tetrahydro-imidazo[1,2-a]pyridine-3-carboxylic acid benzo[1,3]dioxol-5-ylamide], which “BTX inhibition (rat) (% inhibition)” value is on record?
A: The value was 30%.

Source: US7829568B2, “Substituted 5,6,7,8-tetrahydroimidazo[1,2-a]pyridin-2-ylamine compounds and their use for producing drugs” (Gruenenthal GmbH, priority 2005, dated 2010)
